Assay results as given in patent EP4293019A1, “4-SUBSTITUTED (1H-BENZO[D]IMIDAZOL-2-YL)-1H-PYRAZOLES AS BUB1 INHIBITORS USEFUL FOR TREATING CANCERS” (Netherlands Translational Research Center Holding B.V., priority 2022, dated 2023).

Tests used:
U2OS cells = assay: Cellular proliferation assay (SRB proliferation assay); type: cell-based; settings: Homo sapiens, 72 h treatment, SRB staining, N=2, n=3
Experimental: This protocol describes how the Cellular Proliferation Assay was performed to determine pIC50 values of compounds of general formula (I) against U2OS cells.
U2OS (human osteosarcoma) cells were purchased at ATCC and were tested on regular basis for mycoplasma contamination. Cultures were discarded after 2-3 months of use. Cells were cultured at 37°C under 7% CO2 in DMEM (Sigma Aldrich, D6546) supplemented with GlutaMAX (2 mM, ThermoFisher), 10% (v/v) heat-inactivated newborn calf serum (Seradigm), penicillin and streptomycin (200 µg/mL each, Duchefa) (complete medium). Medium was refreshed every 2-3 days and cells were passaged by trypsinization twice a week at 80-90% confluence. Cell viability was assessed by Trypan Blue exclusion and cell quantification using a TC20™ Automated Cell Counter (Bio-Rad).
Assays were performed in 96-well plates (Greiner, Cellstar, 655180) by seeding (day 0), treatment (day 1) and subsequent incubation for 72 h. Cells were fixed, stained and staining was subsequently dissolved after which absorbance was measured. Each assay included the following controls: (i) a background control (to which no cells were added), (ii) t0 controls (separate assay plate in which cells were fixed on day 1, used as 0% proliferation), (iii) nontreated controls (present in each assay plate, treated with vehicle and used as 100% proliferation). Cells were treated with different concentrations of indicated inhibitor. All inhibitors were tested in two separate assays and all inhibitor concentrations were tested in triplicate per assay (N=2, n=3).
For each assay, U2OS cells from 10 cm dishes were seeded into 96-well plates (3,000 cells/well) and subsequently incubated overnight to allow for cell adherence. Stocks of inhibitor and vehicle (all in DMSO) were diluted in complete medium to obtain 2x working solutions (1% DMSO). Cell medium was replaced by fresh complete medium (50 µL), treatment was started by addition of the 2x working solutions (50 µL) and plates were incubated at 37°C for 72 h. Cell medium was replaced by fresh serum free medium (100 µL) and cells were fixed by addition of 30 µL 50% (w/v) aq. trichloroacetic acid after which the plates were incubated at 4°C for 60 min. Wells were emptied by shaking the plates upside down after which wells were washed three times with demineralized water and air-dried overnight. To each well, 60 µL of SRB solution (0.4% (w/v) in 1% aq. acetic acid) was added and plates were incubated for 30 min. The excess SRB was removed and the wells were washed three times with 1% aq. acetic acid and air-dried overnight. Bound SRB was redissolved by addition of 150 µL 10 mM TRIS (free-base) and absorbance was measured at 540 nm on a CLARIOstar plate reader. Data was normalized between t0 and nontreated controls and plotted using GraphPad Prism 8.0 using "Nonlinear regression (curve fit)" and "log(inhibitor) vs. normalized response - Variable slope" to determine pIC50 values.
Inhibition is indicated as pIC50 ("-" = not measured). Compounds having an activity designated as "A" provided an pIC50 ≥ 6.0 (IC50 ≤1 µM); compounds having an activity designated as "B" provided an 5.3 ≤ pIC50 < 6.0 (1 µM<IC50 ≤ 5 µM); compounds having an activity designated as "C" provided an 5.0 ≤ pIC50 < 5.3 (5 µM < IC50 ≤ 10 µM); compounds having an activity designated as "D" provided an 5.0 < pIC50 ≤ 4.7 (10 µM < IC50 ≤ 20 µM); and compounds having an activity designated as "E" provided an pIC50 < 4.7 (IC50 >20 µM).

hBUB1 = molecular target: T1, hBUB1 (Homo sapiens, UniProt O43683); assay: hBUB1 kinase activity assay (biochemical fluorescence polarization assay, IMAP); settings: BUB1/BUB3 3.26 nM, ATP 15 µM, BUB1/BUB3 substrate 75 nM; N=2, n=2; read-out: hBUB1 pIC50 (converted)
T1 construct: purchased Carna Biosciences 05-187
Experimental: This protocol describes how the Kinase Activity Assay was performed to determine pIC50 values of compounds of general formula (I) against hBUB1.
Assays were performed in 384-well plates (Greiner, black, flat bottom, 781076) by sequential addition (final concentrations are indicated) of inhibitor (5 µL, 0.3 nM - 1 µM or 3 nM - 10 µM), BUB1/BUB3 (5 µL, 3.26 nM, Carna Biosciences (05-187), lot: 15CBS-0644 D), ATP (5 µL, 15 µM) and BUB1/BUB3 substrate (5 µL, 75 nM, Carna Biosciences (05-187MSSU)), all as 4x working solutions. The final concentration of DMSO was 1%. Assay reactions were stopped by addition of IMAP progressive binding reagent (20 µL, 1200x diluted, Molecular Devices (R8155), lot: 3117896). Each assay included the following controls: (i) a background control (treated with vehicle instead of inhibitor and BUB1/BUB3 substrate), (ii) MIN controls (treated with 5 µM BAY1816032 (MedChem Express) as inhibitor, used as 0% BUB1 activity) and (iii) MAX controls (treated with vehicle instead of inhibitor, used as 100% BUB1 activity). All inhibitors were tested in two separate assays and all inhibitor concentrations were tested in duplicate per assay (N=2, n=2).
For each assay, assay buffer (AB) was freshly prepared and consisted of 20 mM HEPES (prepared by diluting 1 M HEPES, pH 7.2), 5 mM MgCl2, 0.01% Tween-20 and 1 mM DTT. Stocks of inhibitors (in DMSO) were diluted in AB to obtain 4x working solutions (4% DMSO) and 5 µL was added to the assay plate. BUB1/BUB3 (3.26 µM (486 µg/mL) in storage buffer) was diluted in AB to obtain 13.0 nM of which 5 µL was added to all wells of the assay plate. The assay plate was centrifuged (1 min, 200 g) and incubated at RT for 30 min. ATP (4 mM in MilliQ) was diluted in AB to obtain 60 µM of which 5 µL was added to each well. BUB1/BUB3 substrate (1 mM) was diluted in 20 mM HEPES (prepared by diluting 1 M HEPES (pH 7.2) in MilliQ) to obtain 80 µM (this solution was freshly prepared every assay) and further diluted in AB to obtain 300 nM after which 5 µL was added to each well of the assay plate except for background control wells. The assay plate was centrifuged (1 min, 200 g) and incubated at RT in the dark for 180 min. IMAP progressive binding buffer A (5x) and IMAP progressive binding buffer B (5x) were mixed in a ratio to obtain 30% buffer A and 70% buffer B, which was subsequently diluted 5x in MilliQ. IMAP progressive binding reagent was diluted 600x in aforementioned mixture of buffer A and B (to obtain a 2x working solution) of which 20 µL was added to each well of the assay plate. The assay plate was centrifuged (1 min, 200 g) and incubated at RT in the dark for 90 min. Fluorescence polarization was measured on a CLARIOstar plate reader using the following settings: (i) optic settings → excitation = F: 482-16, dichroic = F: LP 504, emission = F: 530-40, (ii) optic = top optic, (iii) speed/precision = maximum precision, (iv) focus adjustment was performed for every assay and (v) gain adjustment was done by setting the target mP value to 35 mP for one of the MIN control wells. Data was normalized between MIN and MAX controls and data was plotted using GraphPad Prism 8.0 using "Nonlinear regression (curve fit)" and "log(inhibitor) vs. normalized response - Variable slope" to determine pIC50 values.
Inhibition is indicated as pIC50 ("-" = not measured). Compounds having an activity designated as "A" provided an pIC50 ≥ 7.0 (IC50 ≤100 nM); compounds having an activity designated as "B" provided an 6.3 ≤ pIC50 < 7.0 (100 nM<IC50 ≤ 500 nM); compounds having an activity designated as "C" provided an 6.0 ≤ pIC50 < 6.3 (500 nM < IC50 ≤ 1 µM); compounds having an activity designated as "D" provided an 6.0 < pIC50 ≤ 5.0 (1 µM < IC50 ≤ 10 µM); and compounds having an activity designated as "E" provided an pIC50 < 5.0 (IC50 >10 µM).

T1 sequence (O43683 whole entry): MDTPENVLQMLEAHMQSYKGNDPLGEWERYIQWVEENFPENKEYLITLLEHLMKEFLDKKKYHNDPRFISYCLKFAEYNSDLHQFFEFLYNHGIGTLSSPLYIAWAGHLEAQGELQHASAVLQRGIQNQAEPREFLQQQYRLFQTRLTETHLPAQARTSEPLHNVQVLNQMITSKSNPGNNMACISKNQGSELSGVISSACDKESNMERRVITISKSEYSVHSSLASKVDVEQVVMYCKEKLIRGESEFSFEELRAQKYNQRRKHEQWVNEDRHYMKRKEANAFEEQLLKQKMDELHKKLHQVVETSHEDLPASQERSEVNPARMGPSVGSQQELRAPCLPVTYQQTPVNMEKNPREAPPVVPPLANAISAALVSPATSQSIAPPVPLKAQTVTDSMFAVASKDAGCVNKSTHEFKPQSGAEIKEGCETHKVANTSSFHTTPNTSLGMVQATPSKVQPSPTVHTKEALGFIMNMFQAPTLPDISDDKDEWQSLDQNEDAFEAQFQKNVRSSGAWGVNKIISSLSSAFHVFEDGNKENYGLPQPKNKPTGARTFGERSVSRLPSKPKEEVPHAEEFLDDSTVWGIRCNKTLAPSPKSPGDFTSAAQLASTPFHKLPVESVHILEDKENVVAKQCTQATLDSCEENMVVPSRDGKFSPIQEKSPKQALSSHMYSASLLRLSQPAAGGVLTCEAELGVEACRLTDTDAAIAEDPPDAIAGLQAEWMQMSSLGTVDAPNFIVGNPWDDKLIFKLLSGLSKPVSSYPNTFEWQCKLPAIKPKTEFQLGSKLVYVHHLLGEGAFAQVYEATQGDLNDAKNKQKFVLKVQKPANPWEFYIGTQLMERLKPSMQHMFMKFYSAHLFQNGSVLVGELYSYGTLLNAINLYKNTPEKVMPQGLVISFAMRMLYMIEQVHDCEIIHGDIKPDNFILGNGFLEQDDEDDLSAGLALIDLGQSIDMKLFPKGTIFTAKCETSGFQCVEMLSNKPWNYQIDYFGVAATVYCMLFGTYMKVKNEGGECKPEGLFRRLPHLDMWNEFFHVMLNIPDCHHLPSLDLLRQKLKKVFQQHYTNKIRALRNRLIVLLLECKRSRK
T1 sequence (O43684 whole entry partner): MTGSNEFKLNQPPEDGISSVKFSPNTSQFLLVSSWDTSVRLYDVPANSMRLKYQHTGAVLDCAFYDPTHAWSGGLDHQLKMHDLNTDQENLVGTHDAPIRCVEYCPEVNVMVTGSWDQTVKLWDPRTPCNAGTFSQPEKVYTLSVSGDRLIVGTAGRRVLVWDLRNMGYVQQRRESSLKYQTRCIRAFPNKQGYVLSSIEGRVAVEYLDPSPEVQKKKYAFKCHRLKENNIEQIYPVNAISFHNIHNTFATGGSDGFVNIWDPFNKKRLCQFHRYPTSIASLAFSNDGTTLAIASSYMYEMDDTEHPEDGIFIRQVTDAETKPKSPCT

| IC50 (U2OS cells) [µM] | IC50 (hBUB1) [µM] | SMILES |
| --- | --- | --- |
| 1 to 5.01 | 0.1 to 0.501 | c1ccc(COc2nccc(Nc3c[nH]nc3-c3nc4cc(CN5CCOCC5)ccc4[nH]3)n2)cc1 [Compound 18, 2-(benzyloxy)-N-(3-(5-(morpholinomethyl)-1H-benzo[d]imidazol-2-yl)-1H-pyrazol-4-yl)pyrimidin-4-amine] |
| ≤ 1 | ≤ 0.1 | C#Cc1cccc(-c2nccc(Nc3c[nH]nc3-c3nc4cc(CN5CCOCC5)ccc4[nH]3)n2)c1F [Compound 46, 2-(3-Ethynyl-2-fluorophenyl)-N-(3-(5-(morpholinomethyl)-1H-benzo[d]imidazol-2-yl)-1H-pyrazol-4-yl)pyrimidin-4-amine] |
| 1 to 5.01 | 0.501 to 1 | N#Cc1cccc(-c2nccc(Nc3c[nH]nc3-c3nc4cc(CN5CCOCC5)ccc4[nH]3)n2)c1 [Compound 44, 3-(4-((3-(5-(Morpholinomethyl)-1H-benzo[d]imidazol-2-yl)-1H-pyrazol-4-yl)amino)pyrimidin-2-yl)benzonitrile] |
| ≤ 1 | ≤ 0.1 | C#Cc1cccc(-c2ncc(OC)c(Nc3c[nH]nc3-c3nc4cc(CN5CCOCC5)ccc4[nH]3)n2)c1F [Compound 56, 2-(3-Ethynyl-2-fluorophenyl)-5-methoxy-N-(3-(5-(morpholinomethyl)-1H-benzo[d]imidazol-2-yl)-1H-pyrazol-4-yl)pyrimidin-4-amine] |
| ≤ 1 | 0.1 to 0.501 | COc1cnc(-c2cccc(C(F)(F)F)c2)nc1Nc1c[nH]nc1-c1nc2cc(CN3CCOCC3)ccc2[nH]1 [Compound 53, 5-Methoxy-N-(3-(5-(morpholinomethyl)-1H-benzo[d]imidazol-2-yl)-1H-pyrazol-4-yl)-2-(3-(trifluoromethyl)phenyl)pyrimidin-4-amine] |
| 1 to 5.01 | ≤ 0.1 | Fc1ccc(Cl)cc1-c1nccc(Nc2c[nH]nc2-c2nc3cc(CN4CCOCC4)ccc3[nH]2)n1 [Compound 47, 2-(5-Chloro-2-fluorophenyl)-N-(3-(5-(morpholinomethyl)-1H-benzo[d]imidazol-2-yl)-1H-pyrazol-4-yl)pyrimidin-4-amine] |
| 1 to 5.01 | ≤ 0.1 | Fc1c(Cl)cccc1-c1nccc(Nc2c[nH]nc2-c2nc3cc(CN4CCOCC4)ccc3[nH]2)n1 [Compound 45, 2-(3-Chloro-2-fluorophenyl)-N-(3-(5-(morpholinomethyl)-1H-benzo[d]imidazol-2-yl)-1H-pyrazol-4-yl)pyrimidin-4-amine] |
| ≤ 1 | ≤ 0.1 | C#Cc1cccc(-c2ncc(OC)c(Nc3c[nH]nc3-c3nc4cc(CN5CCOCC5)ccc4[nH]3)n2)c1 [Compound 52, 2-(3-Ethynylphenyl)-5-methoxy-N-(3-(5-(morpholinomethyl)-1H-benzo[d]imidazol-2-yl)-1H-pyrazol-4-yl)pyrimidin-4-amine] |
| ≤ 1 | 0.1 to 0.501 | COc1cnc(-c2ccc(F)cc2)nc1Nc1c[nH]nc1-c1nc2cc(CN3CCOCC3)ccc2[nH]1 [Compound 61, 2-(4-Fluorophenyl)-5-methoxy-N-(3-(5-(morpholinomethyl)-1H-benzo[d]imidazol-2-yl)-1H-pyrazol-4-yl)pyrimidin-4-amine] |
| ≤ 1 | ≤ 0.1 | C#Cc1ccc(F)c(-c2ncc(OC)c(Nc3c[nH]nc3-c3nc4cc(CN5CCOCC5)ccc4[nH]3)n2)c1F [Compound 60, 2-(3-Ethynyl-2,6-difluorophenyl)-5-methoxy-N-(3-(5-(morpholinomethyl)-1H-benzo[d]imidazol-2-yl)-1H-pyrazol-4-yl)pyrimidin-4-amine] |
| 5.01 to 10 | 0.1 to 0.501 | c1ccc(Oc2nccc(Nc3c[nH]nc3-c3nc4cc(CN5CCOCC5)ccc4[nH]3)n2)cc1 [Compound 17, N-(3-(5-(morpholinomethyl)-1H-benzo[d]imidazol-2-yl)-1H-pyrazol-4-yl)-2-phenoxypyrimidin-4-amine] |
| ≤ 1 | ≤ 0.1 | COc1cnc(-c2c(F)ccc(Cl)c2F)nc1Nc1c[nH]nc1-c1nc2cc(CN3CCOCC3)ccc2[nH]1 [Compound 59, 2-(3-Chloro-2,6-difluorophenyl)-5-methoxy-N-(3-(5-(morpholinomethyl)-1H-benzo[d]imidazol-2-yl)-1H-pyrazol-4-yl)pyrimidin-4-amine] |
| 1 to 5.01 | ≤ 0.1 | Clc1cccc(-c2nccc(Nc3c[nH]nc3-c3nc4cc(CN5CCOCC5)ccc4[nH]3)n2)c1 [Compound 41, 2-(3-Chlorophenyl)-N-(3-(5-(morpholinomethyl)-1H-benzo[d]imidazol-2-yl)-1H-pyrazol-4-yl)pyrimidin-4-amine] |
| 1 to 5.01 | ≤ 0.1 | C#Cc1cccc(-c2nccc(Nc3c[nH]nc3-c3nc4cc(CN5CCOCC5)ccc4[nH]3)n2)c1 [Compound 42, 2-(3-Ethynylphenyl)-N-(3-(5-(morpholinomethyl)-1H-benzo[d]imidazol-2-yl)-1H-pyrazol-4-yl)pyrimidin-4-amine] |
